Assay [1] addresses T1, ECE-1 (Rattus norvegicus, UniProt P42893).
T1 construct: The endogenous ECE from the plasma membrane fraction converted the; from tissue; host or cells: rat lung tissue, plasma membrane fraction
T1 sequence (P42893 1-762): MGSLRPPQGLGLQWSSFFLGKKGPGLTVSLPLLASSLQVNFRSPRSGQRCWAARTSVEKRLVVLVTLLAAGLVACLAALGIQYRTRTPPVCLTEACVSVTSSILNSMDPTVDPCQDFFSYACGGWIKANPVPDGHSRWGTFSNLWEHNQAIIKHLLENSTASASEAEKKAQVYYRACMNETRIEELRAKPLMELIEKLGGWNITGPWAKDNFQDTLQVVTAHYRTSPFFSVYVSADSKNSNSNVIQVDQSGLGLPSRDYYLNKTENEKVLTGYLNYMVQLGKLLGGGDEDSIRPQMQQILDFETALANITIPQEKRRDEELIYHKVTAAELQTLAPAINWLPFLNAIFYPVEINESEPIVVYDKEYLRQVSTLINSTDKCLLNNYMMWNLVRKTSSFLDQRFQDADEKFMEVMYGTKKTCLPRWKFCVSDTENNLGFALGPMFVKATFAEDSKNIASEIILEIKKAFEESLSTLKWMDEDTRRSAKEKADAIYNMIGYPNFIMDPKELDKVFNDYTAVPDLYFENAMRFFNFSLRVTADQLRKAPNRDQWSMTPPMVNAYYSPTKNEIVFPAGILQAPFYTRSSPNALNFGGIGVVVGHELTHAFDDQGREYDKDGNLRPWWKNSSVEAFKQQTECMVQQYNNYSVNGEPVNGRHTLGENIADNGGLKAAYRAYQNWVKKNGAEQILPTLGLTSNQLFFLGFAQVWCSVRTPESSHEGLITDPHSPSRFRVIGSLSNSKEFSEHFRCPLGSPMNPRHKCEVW
Briefly: ECE-1 activity in plasma membrane fraction of rat lung tissue (conversion of 125I Big ET-1 to 125I ET-1). The format is biochemical. How it is done:
(§1) Fractions were incubated at 37° C. and collected at various time periods ranging from 5 minutes to 24 hours. […] Values represent the mean±SEM for data obtained from replicate samples. Statistical significance of mean [ET-1] among different time periods in HNPE cells as determined by one-way ANOVA and Student-Newman-Keuls multiple comparison test at p<0.05 (5 min n=3; 10 min n=6; 180 min n=9; 24 hrs n=4). Values that were statistically different are identified with an asterisk (“*”). Statistical significance of mean [ET−1] among different time periods in rat lung tissue as determined by one-way ANOVA and Student-Newman-Keuls multiple comparison test at p<0.05 (n=6 for 180 minutes; n=4 for other time periods) and denoted with a cross (“†”). It should be noted that the regression analysis (“r^2”) and line equation (“y=m×+b”) for percent ECE-1 activity were calculated based on a line graph with equal scale on the X axis ranging from 0-1500 minutes.
(§2) Briefly, plasma membrane fractions (e.g. 20 μg total protein) of HNPE cells and rat lung tissue were incubated with 80 fmoles/mg protein of ^125I Big ET-1 for 180 minutes. […] However, each of the samples was divided into two groups: a control; and the CGS 26303 treated group. […] The data were analyzed statistically by one-way ANOVA, and those values that show a significant difference (p<0.05 level) are identified with an asterisk (*).

The target in assay [2] is T2, ECE-1 (Homo sapiens, UniProt P42892).
T2 construct: The endogenous ECE from the plasma membrane fraction converted the; endogenous in cells; host or cells: HNPE cells (human non-pigmented ciliary epithelial), plasma membrane fraction
T2 sequence (P42892 1-770): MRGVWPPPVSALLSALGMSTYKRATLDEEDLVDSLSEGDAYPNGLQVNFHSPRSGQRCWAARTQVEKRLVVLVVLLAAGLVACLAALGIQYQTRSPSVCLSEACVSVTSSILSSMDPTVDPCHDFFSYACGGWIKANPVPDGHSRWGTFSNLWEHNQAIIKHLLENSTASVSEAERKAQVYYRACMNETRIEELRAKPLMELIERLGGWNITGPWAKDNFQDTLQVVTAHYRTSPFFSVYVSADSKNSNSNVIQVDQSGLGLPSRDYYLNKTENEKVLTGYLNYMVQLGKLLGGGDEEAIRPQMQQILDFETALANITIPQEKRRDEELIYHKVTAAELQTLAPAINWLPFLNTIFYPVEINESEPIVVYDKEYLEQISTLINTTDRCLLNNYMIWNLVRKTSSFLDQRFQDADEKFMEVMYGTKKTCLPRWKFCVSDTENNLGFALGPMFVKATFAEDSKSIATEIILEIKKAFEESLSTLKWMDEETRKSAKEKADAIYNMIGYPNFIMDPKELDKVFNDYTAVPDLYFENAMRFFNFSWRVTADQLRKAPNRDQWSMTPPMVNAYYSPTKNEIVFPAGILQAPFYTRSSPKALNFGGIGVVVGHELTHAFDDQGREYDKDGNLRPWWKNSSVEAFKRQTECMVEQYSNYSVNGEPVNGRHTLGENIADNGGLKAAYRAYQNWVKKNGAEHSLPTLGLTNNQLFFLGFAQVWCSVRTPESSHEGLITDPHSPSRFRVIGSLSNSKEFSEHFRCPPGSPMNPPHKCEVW
In words: ECE-1 activity in plasma membrane fraction of HNPE cells (conversion of 125I Big ET-1 to 125I ET-1). The format is biochemical. The method, then:
as §1, §2

Assay [3] has as its system rat optic nerve. Briefly: Anterograde axonal transport in rat optic nerve after intravitreal injection (35S-methionine pulse label). The format is in vivo. The following applies: 28 hour ISI, 2 mmol dose, p>0.999, ANOVA, N=7. From the text: Newly synthesized proteins undergoing anterograde axonal transport in the optic nerve were pulse-labeled in either the presence or absence of endothelin as modified from previously published methods (van Biesen et al., 1995). Modifications to previously published methods were minimal and involved the replacement of a distilled water vehicle for resuspension of radiolabeled precursors with either HEPES buffered ET-1 or HEPES vehicle buffer alone. ^35S-Methionine (Easytag EXPRESS PROTEIN LABELING MIX, Dupont-NEN Life Sciences, Boston, Mass.) was lyophilized and resuspended in either vehicle alone (10 mM HEPES, pH 7.4, Sigma Chemical Co., St Louis, Mo.) or in vehicle containing 500 μM ET-1 (Bachem, Belmont, Calif.). Rats were anesthetized by Metofane inhalation, and 0.8 mCi (4 μl) of radiolabel in vehicle either plus or minus ET-1 (final dose 2 mmols), was injected into the vitreous of the left eye using a 30 gauge needle attached to a Hamilton syringe (microliter #710, 22s gauge, Hamilton Co., Reno, Nev.) by polyethylene tubing (PE-20, Clay Adams Brand, Becton Dickson and Co., Sparks, Md.) (van Biesen et al., 1995). In one experiment, ET-3 was substituted for ET-1, using the same methods (2 mmol dose, 28 hour ISI, N=7 for controls, N=7 for experimentals). […] One minute after injection, all retinas appeared normal in color. (Based upon these initial observations, further observations of the retinas were not performed). Information on the dose-related effect(s) of intravitreal ET-1 in this species (i.e. rat) were unavailable, and physiological/pathological concentrations of endothelin in the optic nerve head's microenvironment are generally unknown. Therefore, dose selection was made on the basis of a small pilot study, using these methods and measuring the total pulse-labeled protein axonally transported into the rat optic nerve. (An N of 3 rats in every group was used only for the pilot study, 4 hour ISI, data not shown). […] However, significant effects on axonal transport (4 hour ISI) were only seen in the pilot study for the 2 mmol dose. […] Possible effect(s) on non-assayed ocular tissues were not considered in dose selection, as data on these were unavailable for either acute or chronic intravitreal ET-1 administration, in rats.
This technique was employed to determine if endothelin-1 also affected the axonal transport in the optic nerve of rats, which is severely compromised in glaucoma. Harvest and preparation of pulse-labeled optic nerves in animals, wherein animals were anesthetized with metofane at specified times after injection and sacrificed by decapitation. Injection-sacrifice intervals were selected based upon the published characterizations of anterograde axonal transport in rat optic nerve for specific marker proteins associated with specific classes of axonally transported materials (Table 4) (Elluru et al., 1995; Garner and Lasek, 1981; Garner and Lasek, 1982; Jahn et al., 1985). Seven vehicle-treated animals and seven endothelin-treated animals were sacrificed at each of the specified times (4, 24, 28, 32, 36 hours and 4, 21 days). Optic nerves were removed, flash frozen with crushed dry ice, and sectioned frozen. Nerves were sectioned to aid complete homogenization, and to provide additional data for future studies. The frozen sections (2 mm in length) were numbered as segments 1-4 (from proximal to distal), and glass-on glass homogenized in 100 μlof BUST sample buffer (2% β-mercaptoethanol, 8M urea, 1% SDS, 0.1M Tris, 0.02% phenol red, pH 7.4). A 25% aliquot of each homogenized segment was counted in a liquid scintillation counter, and counts were corrected for decay, quench, and counting efficiency.

Assay [4] deals with human non-pigmented ciliary epithelial (HNPE) cells. In words: Nitric oxide release from HNPE cells (nitrite, Griess colorimetric assay). Format: cell-based. Conditions: pre-treated with PD-142893 (1 μM) 30 minutes, then 100 nM ET-1, 24 hours; vs ET-1 alone. The method, then:
The effect of endothelin-1 (ET-1) and PD-142893, an ETA/B receptor antagonist, on nitric oxide (“NO”) release from human non-pigmented ciliary epithelial (HNPE) cells are illustrated in FIG. 6. The NO released into the culture media from HNPE cells grown in 24-well plates and treated with ET-1 (100 nM) for 24 hours was converted to nitrites. The total amount of nitrites was measured using the Griess colorimetric assay. HNPE cells were pre-treated with PD-142893 (1 μM) for 30 minutes and then 100 nM ET-1 was also added and incubated for 24 hours. The values in FIG. 6 represent the mean±SEM of a ratio between the nitrite produced under experimental conditions divided by the nitrite produced in control cells, which corresponded to 14.4±1.8 μM and controls were expressed as 100% (n=3). Statistical significance of the nitrite released from ET-1 (100 nM) treatment versus the control are denoted with an asterisk (“*”). Statistical significance of the nitrite released from PD-142893+ET-1 (100 nM) treatment versus that of ET-1 (100 nM) are denoted as a double asterisk (“**”) The statistical differenced were determined by one-way ANOVA and Student-Newman-Keuls multiple comparison test (p<0.05). Thus, addition of ET-1 increased the nitrite levels nearly 2-fold when compared to control cells or cells treated with PD-142893.
(In general: Griess reagent forms a coloured azo dye with nitrite.)

Marks after values point to notes of the source that are not given here. No end group written: not given here. *: point of attachment. dPhe(β-Ph) = β-phenyl D-Phe (N-terminal, N-acetylated), CC(=O)N[C@@H](C(=O)*)C(c1ccccc1)c1ccccc1

As to `O=P(O)(O)CN[C@@H](Cc1ccc(-c2ccccc2)cc1)c1nn[nH]n1` [CGS 26303], the “decrease in 125I ET-1” value in assay [1] (rat lung plasma membrane fraction, 180 minutes, vs control) is 56%. For the same compound, the “fmoles 125I ET-1 produced/mg protein/180 min” value in assay [1] (rat lung tissue plasma membrane fraction, 100 μM CGS-26303, 180 min, 37° C., control 25 ± 1) is given as 11 ± 4* fmoles ^125I ET-1 produced/mg protein/180 min; in assay [2] (HNPE cells plasma membrane fraction, 100 μM CGS-26303, 180 min, 37° C., control 27 ± 1), 12 ± 2* fmoles ^125I ET-1 produced/mg protein/180 min. The “decrease in 125I ET-1 production” value in assay [2] (HNPE plasma membrane fraction, 180 minute time period, vs control) worked out at 55%.

With “ET-3: ETB-receptor-selective agonist, endothelin isopeptide (CTCFTYKDKECVYYCHLDIIW; ends and bridges not checked; cysteine pairing not given here; UniProt P14138 97-117, looked up)”, in assay [3], the “effect of intravitreal ET-3 on anterograde axonal transport compared with ET-1” value is “no significant difference between ET-1 and ET-3”.

As to “N-Acetyl-b-phenyl D-Phy-Leu-Asp-Ile-Ile-Trp ({Ac-dPhe(β-Ph)}-LDIIW) [PD-142893, ETA/B receptor antagonist]”, in assay [4], the “nitrite production, PD-142893 + ET-1” value is listed as “decrease in nitrite production”.

(Values after US20030176356A1, “Endothelin antagonists and endothelin-converting enzyme inhibitors for the treatment of glaucoma” (University of North Texas Health Science Center, priority 2001, published 2003).)
